Measurements published in patent publication EP2605769B1, “BENZOQUINONE DERIVATIVES FOR THE TREATMENT OF MITCHONDRIAL EYE DISEASES” (Santhera Pharmaceuticals (Schweiz) AG, priority 2010, dated 2012).
Several values for one entry are separate records, joined by “and”; a condition that tells them apart may be missing. Equal values may be shown once.

Legend:
C57BL/6J mice = experiment: Mouse model of intravitreal rotenone injection, histopathology, second study with modified less invasive injection method; format: in vivo
Source text: This mouse model is used to assess the therapeutic potential of compounds in eye disorders characterized by mitochondrial dysfunction such as LHON, DOA, macular degeneration, retinopathy, and complex I deficiency. It is a widely accepted in vivo model based on single-eye intravitreal injection of the mitochondrial complex I inhibitor rotenone in the adult mouse. Intravitreal injection of rotenone induces neurotoxicity through mitochondrial complex I dysfunction in the retina which is the main molecular dysfunction […]. […] Histological analysis includes quantitative measurement of the retinal thickness (whole retina and individual layers), RGC apoptosis and cell death, oxidative stress, glutamine synthetase expression, and gliosis. The non-injected eye is used as a within subject, i.e. intraindividual, control. Male wild-type C57BL/6J mice (7 weeks old, about 25 g body weight) are individually housed in Makrolon type II cages with standard bedding and free access to food and water under a regular 12-hours light-dark cycle (8 a.m. to 8 p.m.). […] The injection is performed over a period of 2 min and the needle is kept in place for an additional 3 min, after which it is gently removed. Sterile surgical glue (Histoacryl, BRAUN/Aesculap AG, Germany) is used to seal the site of injection and a sterile antimicrobial ophtalmic ointment (Neosporin, GlaxoSmithKline, UK) is applied to the injected eye to avoid any infection. […] The eye balls are removed, retinas are dissected, fixed for an additional 2 h at 4°C, incubated in PB 0.1 M and 30% sucrose overnight, frozen in optimal cutting temperature compound (O.C.T., Tissue-Tek, Miles Laboratories, Elkhart, IN, USA), sliced at 14 μm, and collected onto glass slides for immunostaining. Immunostaining is performed accordingly to conventional method using multiple primary antibodies. Fluorescent-conjugated secondary antibodies and DAPI are used for visualization under a fluorescence microscope. All procedures are performed in accordance with the Swiss regulation and under a license approved by the "Kantonales Veterinäramt Basel-Land". […] A modified, less invasive injection method was used to further minimize damage caused by the injection itself. […] At 400 mg/kg Compound IA, a clear significant protection was observed (269 μm; p = 0.03), whereas at 2000 mg/kg a strong protective trend was detected (258 μm; p = 0.06). […] Table 6 In Table 6, the histological data on 7 days post-injection is expressed as % of sham (DMSO) injected control ± SEM. […] The term IA 200 defines a treatment with Compound IA at a concentration of 200 mg/kg; […], IA 400 and IA 2000: define a treatment with Compound IA at 400 mg/kg and at 2000 mg/kg, respectively. Statistical significance relative to vehicle + rotenone group is expressed as p ≤ 0.05 (*). n designates the number of retinas per group.

RGC-5 cells = experiment: Cellular viability of RGC-like cells challenged with rotenone (cellular ATP content); format: cell-based
Source text: Mitochondrial impairment directly influences cellular survival. Especially cells and tissues that display high level of energy consumption, such as neurons are especially vulnerable. Consequently, these cells and tissues are likely to be the most responsive to a strategy that targets mitochondrial function. We addressed this possibility by assessing the viability of the retinal ganglion cell line RGC-5, challenged with the mitochondrial complex I inhibitor rotenone, in the absence or presence of compounds.
Experimental procedure: RGC-5 cells were cultured under ambient conditions (37 °C, 5% CO2, 90% humidity) in DMEM (1g/l glucose; 10% fetal bovine serum (FBS), Penicillin-Streptomycin-Glutamine (PSG)). RGC-5 cells will be seeded in DMEM (1g/l glucose; 2% FBS) into BD Falcon™ cell culture plates. Before rotenone- induced complex I inhibition, the cells were pre-treated with Compound IA or vehicle. For Compound IA co-treatment with rotenone, new compound was added together with rotenone-containing cell culture media. After the rotenone exposure, the media was exchanged and replaced by Hanks' BSS for the 1 day post-incubation. The post-treatment media contained Compound IA or vehicle only. As measure of cell viability, cellular ATP content was analyzed using luminescence from ATP-dependent enzymatic oxidation of luciferin by luciferase. RGC-5 cells were be washed with PBS and lysed in lysis buffer (4 mM EDTA, 0.2% Triton X-100) at room temperature. In 96-well plates, ATP measurement buffer (25 mM HEPES pH 7.25, 300 µM D-luciferin, 5 µg/ml firefly luciferase, 75 µM DTT, 6.25 mM MgCl2, 625 µM EDTA and 1 mg/ml BSA) was combined with lysate to start the reaction. Luminescence was quantified immediately using a multimode plate reader (Tecan M1000, Tecan iControl 1.6 software; Tecan Austria GmbH, Grödig, Austria). Effects on cell viability were defined as the percentage of compound-mediated change in cell viability relative to rotenone-induced reduction in cell viability. Data are presented as mean ± SEM. Paired Student's t-test was used to compare non-normalized data. Statistical significance was set at p≤0.05(*), p≤0.01(**) and p≤0.001(***).

[1] = 200 mg/kg + rotenone, 7 days post-injection, ± SEM
[2] = 400 mg/kg + rotenone, 7 days post-injection, ± SEM
[3] = 2000 mg/kg + rotenone, 7 days post-injection, ± SEM

COC1=C(OC)C(=O)C(CCCCCCCCCCO)=C(C)C1=O [Compound IA, Idebenone]
Gliosis (C57BL/6J mice; [1]): 124.46 ± 7.37 * (n=7) % of sham (DMSO) injected control | RGC number (C57BL/6J mice; [1]): 62.53 ± 9.13 (n=7) % of sham (DMSO) injected control | Retinal thickness (C57BL/6J mice; [1]): 91.17 ± 5.72 (n=8) % of sham (DMSO) injected control | Retinal thickness (C57BL/6J mice; 200 mg/kg, 7 days after rotenone-injection, sham about 300 µm, rotenone 220 µm): 272 µm | Gliosis (C57BL/6J mice; [2]): 125.04 ±9.12 * (n=6) % of sham (DMSO) injected control | RGC number (C57BL/6J mice; [2]): 63.68 ± 5.98 * (n=6) % of sham (DMSO) injected control | Retinal thickness (C57BL/6J mice; [2]): 89.93 ± 2.16 * (n=6) % of sham (DMSO) injected control | Retinal thickness (C57BL/6J mice; 400 mg/kg, 7 days after rotenone-injection, sham about 300 µm, rotenone 220 µm): 269 µm | Gliosis (C57BL/6J mice; [3]): 129.86 ± 7.32 * (n=7) % of sham (DMSO) injected control | RGC number (C57BL/6J mice; [3]): 64.44 ± 4.56 * (n=8) % of sham (DMSO) injected control | Retinal thickness (C57BL/6J mice; [3]): 86.58 ± 2.51 (n=8) % of sham (DMSO) injected control | Retinal thickness (C57BL/6J mice; 2000 mg/kg, 7 days after rotenone-injection, sham about 300 µm, rotenone 220 µm): 258 µm | cell viability, compound-mediated change relative to rotenone-induced reduction, mean (RGC-5 cells; 1 day-preincubation, 100 nM): 12.6% | cell viability, compound-mediated change relative to rotenone-induced reduction, mean (Fig. 2) (RGC-5 cells; 1 day-preincubation, 1 µM): highly significant | cell viability, compound-mediated change relative to rotenone-induced reduction, mean (RGC-5 cells; 2 day-preincubation, 1 nM): 1.0% | cell viability, compound-mediated change relative to rotenone-induced reduction, mean (RGC-5 cells; 2 day-preincubation, 10 nM): 7% and 7.3% | cell viability, compound-mediated change relative to rotenone-induced reduction, mean (RGC-5 cells; 2 day-preincubation, 100 nM): 35% and 34.9% | cell viability, compound-mediated change relative to rotenone-induced reduction, mean (RGC-5 cells; 2 day-preincubation, 1000 nM): 58% and 58.4% | concentrations at which viability of RGC-5 cells was significantly rescued (RGC-5 cells; rotenone challenge, dose dependent): ≥ 10 nM
